Measurements: patent publication US10221172B2, “Benzothiazole and benzisothiazole-substituted compounds as mGluR4 allosteric potentiators, compositions, and methods of treating neurological dysfunction” (Vanderbilt University, priority 2015, dated 2019)

Molecular target: human mGluR4 (Homo sapiens (Human), UniProt Q14833)
Assay: mGluR4 potentiation assay, CHO cells transfected with human mGluR4, Ca2+-sensitive dye, EC20 agonist
Format: cell-based
Conditions: potentiation of mGluR4
Description: The disclosed compounds and compositions can be evaluated for their ability to act as a potentiator of metabotropic glutamate receptor activity, in particular mGluR4 activity, by any suitable known methodology known in the art. For example, Chinese Hamster Ovary (CHO) cells transfected with human mGluR4 or HEK cells co-transfected with rat mGluR4 and the G-protein regulated Inwardly Rectifying Potassium channel (GIRK) were plated in clear bottom assay plates for assay in a Hamamatsu FDSS Fluorometric Plate Reader. The cells were loaded with either a Ca2+-sensitive fluorescent dye or the thallium responsive dye and the plates were washed and placed into a suitable kinetic plate reader. For human mGluR4 assays, a fluorescence baseline was established for 3-5 seconds, the disclosed compounds were then added to the cells, and the response in cells was measured. Approximately two and a half minutes later, a concentration of mGluR4 orthosteric agonist (e.g. glutamate or L-AP4) eliciting approximately 20% (EC20) of the maximal agonist response was added to the cells, and the response was measured. Two minutes later, a concentration of mGluR4 agonist (e.g. glutamate or L-AP4) eliciting 80% (EC80) of the maximal agonist response was added to the cells, and the response was measured. For rat mGluR4/GIRK experiments, a baseline was established for approximately five seconds, disclosed compounds were added, and either an EC20 or EC80 concentration of agonist was added approximately two and one half minutes later. Potentiation of the agonist response of mGluR4 by the disclosed compounds was observed as an increase in response to the EC20 concentration of agonist in the presence of compound compared to the response to agonist in the absence of compound. Similarly, antagonism of the agonist response of mGluR4 by the disclosed compounds was observed as a decrease in response to the EC80 concentration of agonist in the presence of compound compared to the response to agonist in the absence of compound.
The above described assay operated in two modes. In the first mode, a range of concentrations of the disclosed compounds are added to cells, followed by a single fixed concentration of agonist. If the compound acts as a potentiatior, an EC50 value for potentiation and a maximum extent of potentiation by the compound at this concentration of agonist is determined by non-linear curve fitting. If the compound acts as a noncompetitive antagonist, an IC50 value is determined by non-linear curve fitting. In the second mode, several fixed concentrations of the disclosed compounds are added to various wells on a plate, followed by a range in concentrations of agonist for each concentration of disclosed compound. The EC50 values for the agonist at each concentration of compound are determined by non-linear curve fitting. A decrease in the EC50 value of the agonist with increasing concentrations of the sample compound (a leftward shift of the agonist concentration-response curve) is an indication of the degree of mGluR4 potentiation at a given concentration of the sample compound. A decrease in the maximal response of the agonist with increasing concentrations of the sample compounds, with or without a rightward shift in agonist potency, is an indication of the degree of noncompetitive antagonism at mGluR4. The second mode also indicates whether the sample compounds also affect the maximum response to mGluR4 to agonists.

[1] = main compound table, species not given
[2] = summary list repeated at the end of the table, species not stated

human mGluR4, sequence (Q14833 33-912): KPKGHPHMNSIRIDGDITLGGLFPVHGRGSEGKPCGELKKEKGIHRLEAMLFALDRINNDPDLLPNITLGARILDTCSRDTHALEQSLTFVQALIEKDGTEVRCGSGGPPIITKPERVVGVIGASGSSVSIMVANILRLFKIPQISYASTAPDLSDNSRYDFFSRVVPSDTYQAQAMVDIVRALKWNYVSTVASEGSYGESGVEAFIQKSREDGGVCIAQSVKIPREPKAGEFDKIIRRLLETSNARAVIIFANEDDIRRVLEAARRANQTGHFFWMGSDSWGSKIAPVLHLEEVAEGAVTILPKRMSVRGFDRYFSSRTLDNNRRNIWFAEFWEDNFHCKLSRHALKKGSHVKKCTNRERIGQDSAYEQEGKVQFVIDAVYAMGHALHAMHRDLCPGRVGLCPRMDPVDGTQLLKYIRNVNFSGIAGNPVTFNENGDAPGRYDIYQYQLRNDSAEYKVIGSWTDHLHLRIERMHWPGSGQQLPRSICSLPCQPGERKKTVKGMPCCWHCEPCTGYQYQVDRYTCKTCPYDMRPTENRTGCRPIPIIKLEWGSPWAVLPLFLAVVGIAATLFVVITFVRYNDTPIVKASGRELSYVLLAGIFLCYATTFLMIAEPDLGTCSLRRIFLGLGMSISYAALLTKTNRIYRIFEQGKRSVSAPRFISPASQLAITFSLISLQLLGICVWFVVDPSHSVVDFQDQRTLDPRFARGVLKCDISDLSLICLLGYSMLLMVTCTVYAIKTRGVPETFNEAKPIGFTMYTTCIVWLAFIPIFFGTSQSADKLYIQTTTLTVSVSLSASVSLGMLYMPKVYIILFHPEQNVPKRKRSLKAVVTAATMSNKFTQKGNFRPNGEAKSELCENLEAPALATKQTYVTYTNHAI

SMILES	EC50 [1] [nM]	EC50 [2] [nM]
CC(C)(C)Cc1nsc2cc(Nc3n[nH]c4cccnc34)ccc12 [Example 2, 3-neopentyl-N-(1H-pyrazolo[4,3-b]pyridin-3-yl)benzo[d] isothiazol-6-amine]	284	284
O=C(c1nsc2cc(Nc3n[nH]c4cccnc34)ccc12)N1CCC(F)(F)C1 [Example 3, (6-((1H-pyrazolo [4,3-b]pyridin-3-yl)amino)benzo[d]isothiazol-3-yl) (3,3-difluoropyrrolidin-1-yl) methanone]	325	325
O=C(NC1CC(F)(F)C1)c1nsc2cc(Nc3n[nH]c4cccnc34)ccc12 [Example 4, 6-((1H-pyrazolo[4,3-b]pyridin-3-yl)amino)-N-(3,3-difluorocyclobutyl)benzo[d] isothiazole-3-carboxamide]	32	32
O=C(c1nsc2cc(Nc3n[nH]c4cccnc34)ccc12)N1CCOCC1 [Example 6, (6-((1H-pyrazolo [4,3-b]pyridin-3-yl)amino)benzo[d]isothiazol-3-yl)(morpholino) methanone]	303	303
CC1CN(C(=O)c2nsc3cc(Nc4n[nH]c5cccnc45)ccc23)CC(C)O1 (stereo not drawn) [Example 7, (6-((1H-pyrazolo [4,3-b]pyridin-3-yl)amino)benzo[d]isothiazol-3-yl) (2,6-dimethyl-morpholino) methanone]	306	306
O=C(c1nsc2cc(Nc3n[nH]c4cccnc34)ccc12)N1CCCC1 [Example 10, (6-((1H-pyrazolo [4,3-b]pyridin-3-yl)amino)benzo[d]isothiazol-3-yl) (pyrrolidin-1-yl) methanone]	1340	1340
O=C(c1nsc2cc(Nc3n[nH]c4cccnc34)ccc12)N1CCCC1c1ccccn1 (stereo not drawn) [Example 11, (6-((1H-pyrazolo [4,3-b]pyridin-3-yl)amino)benzo[d]isothiazol-3-yl)(2-(pyridin-2-yl)pyrrolidin-1-yl) methanone]	> 10000	> 10000
CN1CCN(C(=O)c2nsc3cc(Nc4n[nH]c5cccnc45)ccc23)CC1 [Example 12, (6-((1H-pyrazolo [4,3-b]pyridin-3-yl)amino)benzo[d]isothiazol-3-yl)(4-methylpiperazin-1-yl) methanone]	1140	1140
O=C(c1nsc2cc(Nc3n[nH]c4cccnc34)ccc12)N1CCN2CCCC2C1 (stereo not drawn) [Example 13, (6-((1H-pyrazolo [4,3-b]pyridin-3-yl)amino)benzo[d]isothiazol-3-yl)(hexahydropyrrolo [1,2-a]pyrazin-2(1H)-yl)methanone]	1610	1610
O=C(c1nsc2cc(Nc3n[nH]c4cccnc34)ccc12)N1CCC(N2CCOCC2)C1 (stereo not drawn) [Example 14, (6-((1H-pyrazolo[4,3-b]pyridin-3-yl)amino)benzo[d]isothiazol-3-yl) (3-morpholinopyrrolidin-1-yl)methanone]	3450	3450
O=C(c1nsc2cc(Nc3n[nH]c4cccnc34)ccc12)N1CCCOCC1 [Example 17, (6-((1H-pyrazolo[4,3-b]pyridin-3-yl)amino)benzo[d]isothiazol-3-yl)(1,4-oxazepan-4-yl)methanone]	607	607
CC1CC(C)CN(C(=O)c2nsc3cc(Nc4n[nH]c5cccnc45)ccc23)C1 (stereo not drawn) [Example 18, (6-((1H-pyrazolo [4,3-b]pyridin-3-yl)amino)benzo[d]isothiazol-3-yl)(3,5-dimethylpiperidin-1-yl) methanone]	517	517
CC1CCN(C(=O)c2nsc3cc(Nc4n[nH]c5cccnc45)ccc23)CC1 [Example 19, (6-((1H-pyrazolo [4,3-b]pyridin-3-yl)amino)benzo[d]isothiazol-3-yl) (4-methylpiperidin-1-yl)methanone]	408	408
CC(C)(C)Cc1nsc2cc(Nc3n[nH]c4ncccc34)ccc12 [Example 22, 3-neopentyl-N-(1H-pyrazolo[3,4-b]pyridin-3-yl)benzo[d] isothiazol-6-amine]	884	884
CC(C)(C)c1nsc2cc(Nc3n[nH]c4cccnc34)ccc12 [Example 25, 3-(tert-butyl)-N-(1H-pyrazolo[4,3-b]pyridin-3-yl)benzo[d]isothiazol-6-amine]	–	329

The next lines start with the values.

EC50 [1] [nM]	EC50 [2] [nM]	SMILES
187	187	Cc1nsc2ccc(Nc3n[nH]c4cccnc34)cc12 [Example 1, 3-methyl-N-(1H-pyrazolo[4,3-b]pyridin-3-yl)benzo[d]isothiazol-5-amine]
60	60	O=C(c1nsc2cc(Nc3n[nH]c4cccnc34)ccc12)N1CCC(F)(F)CC1 [Example 5, (6-((1H-pyrazolo[4,3-b]pyridin-3-yl)amino)benzo[d]isothiazol-3-yl) (4,4-difluoropiperidin-1-yl) methanone]
136	136	O=C(c1nsc2cc(Nc3n[nH]c4cccnc34)ccc12)N1CCS(=O)(=O)CC1 [Example 8, (6-((1H-pyrazolo [4,3-b]pyridin-3-yl)amino)benzo[d]isothiazol-3-yl)(1,1-dioxido-thiomorpholino) methanone]
233	233	O=C(c1nsc2cc(Nc3n[nH]c4cccnc34)ccc12)N1CCCC(F)(F)C1 [Example 9, (6-((1H-pyrazolo [4,3-b]pyridin-3-yl)amino)benzo[d]isothiazol-3-yl) (3,3-difluoropiperidin-1-yl)methanone]
164	164	CN(C(=O)c1nsc2cc(Nc3n[nH]c4cccnc34)ccc12)C1CC(F)(F)C1 [Example 15, 6-((1H-pyrazolo[4,3-b]pyridin-3-yl)amino)-N-(3,3-difluorocyclobutyl)-N-methylbenzo[d] isothiazole-3-carboxamide]
85	85	O=C(c1nsc2cc(Nc3n[nH]c4cccnc34)ccc12)N1CCSCC1 [Example 16, (6-((1H-pyrazolo [4,3-b]pyridin-3-yl)amino)benzo[d]isothiazol-3-yl)(thiomorpholino) methanone]
249	249	O=C(c1nsc2cc(Nc3n[nH]c4cccnc34)ccc12)N1CCC(F)CC1 [Example 20, (6-((1H-pyrazolo [4,3-b]pyridin-3-yl)amino)benzo [d]isothiazol-3-yl) (4-fluoropiperidin-1-yl)methanone]
50	50	O=C(c1nsc2cc(Nc3n[nH]c4cccnc34)ccc12)N1CCC(C(F)(F)F)CC1 [Example 21, (6-((1H-pyrazolo [4,3-b]pyridin-3-yl)amino)benzo[d]isothiazol-3-yl) (4-(trifluoromethyl)piperidin-1-yl) methanone]
56	56	CCCc1nsc2cc(Nc3n[nH]c4cccnc34)ccc12 [Example 23, 3-propyl-N-(1H-pyrazolo [4,3-b]pyridin-3-yl)benzo[d]isothiazol-6-amine]
23.4	23.4	CCCc1nsc2cc(Nc3n[nH]c4nccnc34)ccc12 [Example 24, 3-propyl-N-(1H-pyrazolo[3,4-b]pyrazine-3-yl)benzo[d]isothiazol-6-amine]
220	220	CCCc1nsc2cc(Nc3n[nH]c4ncccc34)ccc12 [Example 26, 3-propyl-N-(1H-pyrazolo[3,4-b]pyridin-3-yl)benzo[d]isothiazol-6-amine]
